According to US5474988A, “5-phenylpyrrolo-1,4-benzoxazine and 5-phenylpyrrolo-1,4-benzothiazine compounds, process and intermediates for their production and pharmaceutical compositions containing them” (Kali-Chemie Pharma GmbH, priority 1993, dated 1995):

Molecular target: T1, 5-lipoxygenase (Homo sapiens, UniProt P09917)
T1 construct: the 5-LO activity in human whole blood; from tissue; host or cells: heparinized human whole blood
T1 sequence (P09917 1-674): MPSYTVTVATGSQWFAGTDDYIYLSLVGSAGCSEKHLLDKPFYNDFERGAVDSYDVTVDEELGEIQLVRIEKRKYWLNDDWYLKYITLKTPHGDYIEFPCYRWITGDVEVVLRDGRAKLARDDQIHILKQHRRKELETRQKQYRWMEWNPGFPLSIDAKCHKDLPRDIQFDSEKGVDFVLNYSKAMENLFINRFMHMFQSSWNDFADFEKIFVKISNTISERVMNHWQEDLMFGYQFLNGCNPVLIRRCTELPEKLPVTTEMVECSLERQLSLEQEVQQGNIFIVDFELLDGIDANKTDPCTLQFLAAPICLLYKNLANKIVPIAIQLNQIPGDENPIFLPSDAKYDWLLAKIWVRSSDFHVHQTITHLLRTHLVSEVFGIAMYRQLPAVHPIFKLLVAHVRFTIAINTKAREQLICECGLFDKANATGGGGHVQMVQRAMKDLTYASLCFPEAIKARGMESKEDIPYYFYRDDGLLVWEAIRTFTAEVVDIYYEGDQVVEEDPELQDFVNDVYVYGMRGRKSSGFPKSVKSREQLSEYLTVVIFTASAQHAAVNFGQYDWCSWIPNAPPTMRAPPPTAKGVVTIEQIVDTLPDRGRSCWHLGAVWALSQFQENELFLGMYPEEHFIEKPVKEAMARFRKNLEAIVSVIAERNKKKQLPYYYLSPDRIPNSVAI
Experiment: 5-lipoxygenase inhibition in human blood (LTB4 formation)
Type: cell-based
Conditions: 0.5 h; 10^-5 mole/liter; human whole blood, 37° C.; read-out: In vitro % inhibitory activity on LTB4 formation in human blood stimulated by calcimycin
Protocol: 4c. In vitro determination of 5-lipoxygenase inhibition in human blood.
The inhibitory activity of the test substances on the 5-LO activity in human whole blood taking place after stimulation by calcimycin is investigated according to the method described by P. Gresele et al. (Biochem. Biophys. Commun. 137 (1986), 334).
For carrying out the test, human blood is collected in sterile 50 ml test tubes which contain 10 units of heparin/ml of blood and incubated for 5-10 minutes at 37° C. Amounts of test substance, dissolved in 10 μl of dimethylformamide, are added to 2 ml samples of this blood such that a final concentration of test substance of 10 μmol/l is achieved in the samples. Only 10 μl of the solvent were added to control samples. The samples were then incubated for 10 minutes at 37° C. In order to stimulate LTB4 synthesis, an amount of calcimycin, dissolved in 200 μl of plasma, was added to the samples such that a calcimycin concentration of 60 μmol/l was achieved, and the samples were incubated for a further 30 minutes at 37° C. The reaction was then terminated by addition of 200 μl of an ethylene glycol tetraacetate solution (corresponding to an ethylene glycol acetate concentration in the sample of 100 mmol/l). The samples are kept in an ice-bath for 10 minutes and then centrifuged (5 minutes at 1000×g). The supernantant liquids, which contain the LTB4 formed during the reaction time, are each separated and, for precipitation of the proteins contained therein, mixed with 3 ml of acetone and kept for 45 minutes at 4° C. Then the samples are centrifuged again (5 minutes at 1500×g), the supernatant liquids are separated, and the content of LTB4 therein is determined in a known manner by means of an enzyme immunoassay (=EIA). From the measured LTB4 values, the inhibitory activity of the test substances in human whole blood was calculated in % inhibition of LTB4 synthesis in comparison to the control samples containing no test substance.

inhibition at 10 µM | Compound
86% | Cc1ccnc(N2CCN(CCC3Cn4c(-c5ccc(O)cc5)c(C)c5c(O)ccc(c54)O3)CC2)c1 (centres unmarked) [Example 4, 2,3-Dihydro-7-hydroxy-5-(4-hydroxyphenyl)-6-methyl-2-[2-(4-(4-methylpyridin-2-yl)piperazin-1-yl)ethyl]pyrrolo[1,2,3-de]-1,4-benzoxazine]
100% | Cc1ccnc(N2CCN(C(=O)CCC3Cn4c(-c5cc(C)c(O)c(C)c5)c(C)c5c(O)ccc(c54)O3)CC2)c1 (centres unmarked) [Example 67]
95% | Cc1ccnc(N2CCN(C(=O)CCC3Cn4c(-c5ccc(O)cc5)c(C)c5c(O)ccc(c54)O3)CC2)c1 (centres unmarked) [Example 69]
100% | Cc1cc(-c2c(C)c3c(O)ccc4c3n2CC(CCC(=O)N2CCN(c3ccccn3)CC2)O4)cc(C)c1O (centres unmarked) [Example 71]
95% | COc1cc(-c2c(C)c3c(O)ccc4c3n2CC(CCC(=O)N2CCN(c3ccccn3)CC2)O4)cc(C)c1O (centres unmarked) [Example 72]
100% | Cc1ccnc(N2CCN(CCCC3Cn4c(-c5cc(C)c(O)c(C)c5)c(C)c5c(O)ccc(c54)O3)CC2)c1 (centres unmarked) [Example 73]
100% | Cc1cccnc1N1CCN(CCCC2Cn3c(-c4cc(C)c(O)c(C)c4)c(C)c4c(O)ccc(c43)O2)CC1 (centres unmarked) [Example 74]
96% | Cc1cc(-c2c(C)c3c(OCc4ccccc4)ccc4c3n2CC(CCC(=O)N2CCN(c3ccccn3)CC2)O4)cc(C)c1O (centres unmarked) [Example 75]
